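Protocol summary: plate cells (96-well), add compound at 5 concentrations, incubate 48 h, interpolate endpoints linearly. GI50 = concentration required for 50% inhibition of growth. TGI marks complete inhibition of growth.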
Key:
Test in all cases: NCI-60 cell line screen, 48 h
NCI-H226 lung = system: NCI-H226 lung
RPMI-8226 leukemia = system: RPMI-8226 leukemia
A498 renal = system: A498 renal
MDA-MB-435 = system: MDA-MB-435
COLO 205 colon = system: COLO 205 colon
HOP-62 NSCLC = system: HOP-62 NSCLC
LOX IMVI melanoma = system: LOX IMVI melanoma
SK-OV-3 ovarian = system: SK-OV-3 ovarian
DMS 273 small cell lung = system: DMS 273 small cell lung
LXFL 529 NSCLC = system: LXFL 529 NSCLC

SMILES | TGI (NCI-H226 lung) | TGI (RPMI-8226 leukemia) | TGI (A498 renal) | TGI (MDA-MB-435) | TGI (COLO 205 colon) | TGI (HOP-62 NSCLC) | TGI (LOX IMVI melanoma) | TGI (SK-OV-3 ovarian) | TGI (DMS 273 small cell lung) | TGI (LXFL 529 NSCLC) | GI50 (NCI-H226 lung) | GI50 (RPMI-8226 leukemia) | GI50 (A498 renal) | GI50 (MDA-MB-435) | GI50 (COLO 205 colon) | GI50 (HOP-62 NSCLC) | GI50 (LOX IMVI melanoma) | GI50 (SK-OV-3 ovarian)
Cc1nc2c(C)ccc([N+](=O)[O-])c2c(NCCCN(C)C)c1C | > 100 µM | > 100 µM | > 49.6 µM | > 100 µM | 47.6 µM | > 66.6 µM | > 100 µM | > 100 µM | – | – | – | – | – | – | – | – | – | –
C=CCNC(=S)NNC(=O)c1c(C)nc2sccn12 | > 100 µM | – | – | – | > 100 µM | > 100 µM | > 100 µM | > 100 µM | > 100 µM | > 100 µM | – | – | – | – | – | – | – | –
COC(=O)c1c(C)nc(C)c2c1C(=O)C(Br)=C(NCc1ccccc1)C2=O | 18 µM | 11.7 µM | 17.3 µM | 3.38 µM | 3.63 µM | 10.8 µM | 10.8 µM | 19.2 µM | – | – | 4.01 µM | 3.24 µM | 4.48 µM | 1.86 µM | 1.7 µM | 3.12 µM | 2.45 µM | 6.2 µM
C[N+](C)(C)CC1CCC(C[N+](C)(C)C)C1=NO (stereo not given) | > 100 µM | > 100 µM | > 100 µM | – | > 100 µM | > 100 µM | > 100 µM | > 100 µM | – | > 100 µM | – | – | – | – | – | – | – | –
Cc1cc(NC(=O)NCc2ccc(N3C(N)=NC(N)=NC3(C)C)cc2)ccc1S(=O)(=O)F | > 100 µM | > 100 µM | > 100 µM | > 100 µM | > 100 µM | > 100 µM | > 100 µM | > 100 µM | – | – | > 61.2 µM | 4.55 µM | > 46.4 µM | 0.456 µM | 2.77 µM | 12.8 µM | 0.824 µM | 36.6 µM
CCCCNc1ncnc2c1cnn2-c1ccccc1 | 86.1 µM | > 28.3 µM | > 100 µM | 0.7 µM | 11.7 µM | > 100 µM | > 100 µM | 31.2 µM | – | – | 13.7 µM | 3.76 µM | 4.32 µM | 0.237 µM | 1.15 µM | 3.42 µM | 3.7 µM | 3.2 µM
COc1cc(C(=O)c2cnc(-c3c[nH]c4cccc(C)c34)[nH]2)cc(OC)c1OC | – | 19.8 µM | 0.00774 µM | 0.0051 µM | 0.0412 µM | 55.9 µM | > 100 µM | 2.5 µM | – | – | 0.00485 µM | 0.0399 µM | 0.00176 µM | 0.00222 µM | 0.00513 µM | 0.00809 µM | 0.0151 µM | 0.0065 µM
CCSC[C@@H]1C[C@](O)(c2ccccc2)[C@@H](c2ccccc2)O1 | > 100 µM | > 100 µM | > 100 µM | > 100 µM | > 100 µM | > 100 µM | > 100 µM | > 100 µM | – | – | > 77.1 µM | 28.7 µM | 69.9 µM | > 94.6 µM | > 78.9 µM | > 100 µM | > 94.2 µM | > 100 µM
Clc1ccc(C=Nc2ccc(-c3nc4ccccc4[nH]3)cc2)cc1 | > 100 µM | > 100 µM | > 100 µM | > 100 µM | > 100 µM | > 100 µM | > 100 µM | > 100 µM | – | – | > 100 µM | > 100 µM | 17.4 µM | > 100 µM | > 100 µM | > 100 µM | > 100 µM | > 100 µM
COc1cc2ncn(-c3cc(OCc4ccccc4C(F)(F)F)c(C(N)=O)s3)c2cc1OC | > 25 µM | > 25 µM | 5.2 µM | 0.282 µM | > 25 µM | 5.88 µM | > 25 µM | 9.09 µM | – | – | 1.01 µM | 0.278 µM | 0.186 µM | 0.0552 µM | 0.117 µM | 0.197 µM | 0.139 µM | 0.251 µM
CCn1c(-c2nonc2N)nc2ccccc21 | > 25 µM | > 25 µM | > 25 µM | > 25 µM | > 25 µM | > 25 µM | > 25 µM | > 25 µM | – | – | > 14.9 µM | > 25 µM | > 25 µM | > 25 µM | > 25 µM | > 25 µM | > 25 µM | > 25 µM
O=[N+]([O-])c1ccccc1N=Nc1c(O)[nH]c2c(Cl)cccc12 | > 78.2 µM | 96.2 µM | > 68.8 µM | > 100 µM | > 100 µM | 40.9 µM | 44.1 µM | 54.7 µM | – | – | – | – | – | – | – | – | – | –
CCOc1ccc(NC(=O)CC2SC(=Nc3ccc(C)cc3)NC2=O)cc1 (stereo not given) | – | – | > 100 µM | – | > 100 µM | > 100 µM | > 100 µM | > 100 µM | > 100 µM | > 100 µM | – | – | – | – | – | – | – | –
